From PubChem BioAssay AID1241 (SRMLSC, 2008) come the findings set out here.

The test in a line: compounds inducing NF-kB luciferase expression – cell-based, SH-SY5Y, dose response (AID 1241). As to conditions: SH-SY5Y NF-kB promoter luciferase reporter, fold induction. For orientation: In a reporter assay the amount or activity of a reporter protein is the signal.
Turning to `Cc1nn(-c2ccccc2)c(Cl)c1/C=N/Nc1ccc(Cl)c(C(=O)O)c1`, the concentration for a half-maximal effect (EC50) was 11300 nM.

For the compound `C=CCNc1nc(-c2cc3ccccc3o2)cs1`, the EC50 is 598 nM.

On to `Cc1ccc2nc(-c3sc4nc(C)ccc4c3N)[nH]c2c1`, for which the EC50 was 765 nM.

In the case of `COc1ccc(CN=C2Nc3ccccc3CS2)cc1`, the concentration for a half-maximal effect (EC50) is 13300 nM.

As for `Cc1sc(NC(=O)c2ccco2)nc1-c1ccccc1`, the 50% effective concentration (EC50) is 2770 nM.

`CCc1ccc(-c2cn3c(n2)SCC3)cc1`: the EC50 is 9880 nM.

On to `N#C/C(=N\Nc1ccc(F)cc1)C(=N)N1CCCCCC1`, for which the EC50 was 2170 nM.

`c1ccc(Cn2ccc(-c3cnc(-c4ccccc4)s3)n2)cc1`: the EC50 was 2240 nM.

Consider `CC(=Nc1ccc(O)cc1)c1sc2ccccc2c1O`, for which the concentration for a half-maximal effect (EC50) is 2160 nM.

Turning to `Cc1cccc(NC(=O)/C=C/c2ccc3c(c2)OCO3)n1`, the EC50 is 2510 nM.

`Cc1ccc(N/C=C(/C#N)c2ccsc2)cc1C`: the concentration giving a half-maximal response (EC50) is 6870 nM.

On to `CCOC(=O)c1cnc(SCc2ccccc2)nc1N`, for which the 50% effective concentration (EC50) was 8920 nM.

Regarding `CCOC(=O)C1=C(C)n2c(s/c(=C/c3cccc([N+](=O)[O-])c3)c2=O)=NC1c1ccc(O)c(OC)c1` (stereo not given), the concentration for a half-maximal effect (EC50) was 2100 nM.

Consider `COC(=O)c1sc2nc3c(cc2c1N)CCCC3`, for which the concentration for a half-maximal effect (EC50) was 4060 nM.

`Cn1cccc1C(=O)C(=O)Nc1ccc(Cl)cc1`: the half-maximal effective concentration (EC50) is 25200 nM.

Turning to `O=C(O)c1ccc2nc(-c3ccccc3)sc2c1`, the EC50 was 1840 nM.

For the compound `Cc1cc(NC(=O)c2ccccc2)sc1C`, the 50% effective concentration (EC50) was 17300 nM.

In the case of `O=C(Nc1ccc(Cl)cc1)C1=Cc2ccccc2OC1`, the EC50 was 2230 nM.

With `Fc1ccccc1-c1nc(-c2ccccc2)no1`, the EC50 was 4000 nM.

For the compound `Cc1ccc(C2=NN(S(C)(=O)=O)C(c3ccc4c(c3)OCO4)C2)cc1` (stereo not given), the EC50 is 2650 nM.

Turning to `COc1ccc(C(=O)/C=C2\Sc3ccccc3N2C)cc1`, the 50% effective concentration (EC50) was 1750 nM.

As for `COc1ccc(Cn2c(/C=C/c3ccccc3)nc3ccccc32)cc1`, the EC50 is 4870 nM.

Consider `CCOC(=O)c1sc2nc(-c3cccnc3)ccc2c1N`, for which the concentration giving a half-maximal response (EC50) was 1350 nM.

As for `CC(/C=N/Nc1nc2ccccc2[nH]1)=C\c1ccccc1`, the EC50 is 4160 nM.

In the case of `c1ccc(COc2ccc(OCCCn3cncn3)cc2)cc1`, the concentration for a half-maximal effect (EC50) was 19800 nM.

In the case of `O=C(O)c1cccc(N/N=C/c2cccs2)c1`, the EC50 is 1310 nM.

For `O=C(Nc1nc(-c2ccc3c(c2)OCCO3)cs1)C1CCCC1`, the half-maximal effective concentration (EC50) is 13700 nM.

Turning to `Cc1ccc(NC(=O)c2ccn(C)n2)c(Br)c1`, the concentration giving a half-maximal response (EC50) is 8250 nM.

Turning to `COc1ccc(N=Cc2sc(O)c3ccccc23)cc1`, the EC50 was 992 nM.

As to `CCN(CC)c1ccc(/C=N/NC(=S)NC)c(O)c1`, the EC50 is 1980 nM.

Turning to `O=C1CCOc2cc(OCc3ccccc3)ccc21`, the EC50 was 824 nM.

As to `CCOC(=O)c1ccc2nc(NC(=O)c3cccs3)sc2c1`, the EC50 was 1930 nM.

Take `C/C(=N\N1C(=O)c2ccccc2NC1c1ccco1)c1ccccc1O` (stereo not given): the EC50 was 2500 nM.

As for `O=C(Nc1ccc2c(c1)OCO2)c1noc2c1CCCCC2`, the EC50 was 1130 nM.

In the case of `Cc1cc(C)cc(NC(=O)c2ccc([N+](=O)[O-])o2)c1`, the concentration for a half-maximal effect (EC50) is 4240 nM.

For `Nc1c(C(=O)Nc2ccc(Cl)cc2)oc2ccccc12`, the EC50 is 11000 nM.

`Cc1ccc(C(=O)/C=C/Nc2ccc3c(c2)OCO3)cc1`: the concentration for a half-maximal effect (EC50) is 896 nM.

Turning to `Cc1ccc(Nc2nc(-c3ccc(O)c(O)c3)cs2)nc1`, the EC50 was 6730 nM.

As for `N/C(=N\OC(=O)COc1ccc(Cl)cc1Cl)c1ccccn1`, the concentration for a half-maximal effect (EC50) was 1190 nM.

Turning to `Cc1ccc(C(=O)Nc2nc3c(s2)CCCC3)o1`, the EC50 is 1780 nM.

Turning to `CCCc1cc(C(=O)Nc2nccs2)cs1`, the half-maximal effective concentration (EC50) was 2620 nM.

Take `O=C(Nc1ccc2c(c1)CCC2)c1ccc(F)cc1`: the EC50 was 217 nM.

As for `CCOc1ccc2nc(NC(=O)Nc3cccs3)sc2c1`, the half-maximal effective concentration (EC50) is 1680 nM.

Turning to `CC1=NC(=O)C(N=Nc2cccc(C(=O)O)c2)N1c1ccccc1` (stereo not given), the EC50 was 781 nM.

Take `Cc1ccc(C(=O)c2cc([N+](=O)[O-])ccc2N2CCOCC2)c(C)c1`: the EC50 is 3030 nM.

On to `O=C(Cc1ccccc1)Nc1nc2ccccc2s1`, for which the EC50 was 29500 nM.

For the compound `Cc1ccc(N=Cc2sc(O)c3ccccc23)cc1`, the EC50 is 1730 nM.

For `Oc1ccccc1-c1cc(-c2ccc3c(c2)OCCO3)n[nH]1`, the EC50 is 639 nM.

Take `O=C(/C=C/Nc1ccccc1F)c1ccc(Br)cc1`: the EC50 was 595 nM.

Regarding `CCNC(=O)O/N=C(\C)c1sc(-c2ccc(Cl)cc2)nc1C`, the concentration for a half-maximal effect (EC50) was 1630 nM.

On to `O=C(Nc1ccc2c(c1)OCCO2)c1cc2ccccc2o1`, for which the EC50 is 1120 nM.

Consider `COc1ccc(/C=N/Nc2ncccc2[N+](=O)[O-])c(OC)c1`, for which the EC50 is 3350 nM.

For `c1cn2cc(-c3ccc4c(c3)OCO4)nc2s1`, the EC50 was 1860 nM.

In the case of `COC(=O)c1ccc(/C=C(\C#N)c2ccccn2)cc1`, the EC50 was 25100 nM.

As for `O=C(Nc1ccc2nsnc2c1)c1ccc2c(c1)OCO2`, the concentration giving a half-maximal response (EC50) was 1850 nM.

In the case of `c1ccc(Nc2nc(-c3ccncc3)cs2)nc1`, the EC50 was 1640 nM.

For the compound `Nc1ccc2nc(-c3ccc(Cl)cc3)[nH]c2c1`, the EC50 is 9960 nM.

Take `CCCCCCCOc1ccc(OC(=O)c2cccnc2)cc1`: the EC50 was 161 nM.

For `Cc1ccc(NC(=S)N2CCC(c3ccccc3)C2)c(Cl)c1` (stereo not given), the half-maximal effective concentration (EC50) was 1800 nM.

Take `O=C(NC1=NCCS1)c1sc2ccccc2c1Cl`: the EC50 is 5760 nM.

For the compound `Cc1nc(-c2ccc(NC(=O)c3ccccc3)cc2)cs1`, the EC50 was 761 nM.

Regarding `COc1ccccc1Oc1ccc(N/C=C/C(=O)c2ccco2)cc1`, the 50% effective concentration (EC50) was 7130 nM.

Consider `O=C(NCCSc1ccccc1)c1ccc(Br)cc1`, for which the EC50 was 1340 nM.

`Cc1ccc(NC(=O)c2noc3c2CCC3)cc1C`: the EC50 is 3120 nM.

As for `Cc1cc(C)c[n+](-c2nc3ccccc3nc2C(=C=[N-])C#N)c1`, the EC50 is 28000 nM.

`O=C(Nc1ccc(Cl)cc1Cl)C1=Cc2ccccc2OC1`: the concentration for a half-maximal effect (EC50) is 8040 nM.

Consider `COc1ccc(NC(=O)N2CCc3ccccc32)cc1`, for which the concentration for a half-maximal effect (EC50) is 697 nM.

In the case of `Cc1cc(NC(=O)Nc2ccccc2F)ccc1Br`, the EC50 is 4350 nM.

Regarding `CCc1ccc(C2=NN(S(C)(=O)=O)C(c3cccs3)C2)cc1` (stereo not given), the EC50 is 2850 nM.

Turning to `O=C(Nc1cccnc1Cl)c1ccc2c(Cl)c3c(nc2c1)CCC3`, the EC50 is 674 nM.

Consider `CC(=O)c1cnc2cc(-c3ccc(C)cc3)nn2c1C`, for which the EC50 is 3260 nM.

`CCOC(=O)CSc1nc(-c2ccncc2)ccc1C#N`: the EC50 is 6770 nM.

Take `Cc1cccnc1Nc1nc(-c2ccccn2)cs1`: the EC50 was 160 nM.

For `N/C(=N\OC(=O)c1ccccc1Cl)c1ccccc1`, the concentration for a half-maximal effect (EC50) is 956 nM.

For `CN1/C(=C/C(=O)c2cccs2)Sc2ccccc21`, the EC50 was 685 nM.

For `CN1CCN(Cn2cc(/C=C/C(=O)c3ccccc3)c3ccccc32)CC1`, the EC50 was 3610 nM.

In the case of `CCCCCCCOc1ccc(OC(=O)c2ccncc2)cc1`, the concentration for a half-maximal effect (EC50) was 107 nM.

For `COc1cccc(-c2nc(-c3ccccc3)no2)c1`, the EC50 is 1490 nM.

For `O=c1[nH]c(/C=C2\C=Nc3ccccc32)c(O)n1Cc1ccccc1F`, the concentration for a half-maximal effect (EC50) was 2540 nM.

As to `Cc1nn(-c2ccc([N+](=O)[O-])cc2)c(N)c1-c1ccccc1`, the EC50 was 6720 nM.

Consider `COc1ccc(-c2csc(N3C(=O)CNC3=S)n2)cc1`, for which the EC50 is 935 nM.

Consider `O=C(Nc1nc2ccccc2s1)c1ccc(F)cc1`, for which the EC50 is 1200 nM.

`CC(=O)Nc1ccc2nc(-c3ccccc3)cn2c1`: the 50% effective concentration (EC50) was 2700 nM.

For `Cc1ccc(-c2nnc(-c3cccs3)o2)cc1`, the EC50 was 2790 nM.

Regarding `CCOC(=O)CSc1nc2cc(OC)ccc2cc1C#N`, the concentration giving a half-maximal response (EC50) was 144 nM.

In the case of `CCc1ccc(C(=O)/C=C/c2cnn(C)c2C)s1`, the concentration for a half-maximal effect (EC50) is 7900 nM.

As for `Cc1nc(Nc2ccccc2)sc1-c1ccccc1`, the EC50 is 1450 nM.

With `O=C(Nc1ccc2c(c1)OCO2)c1ccc(Br)s1`, the EC50 was 4220 nM.

In the case of `Cc1ccc(Nc2nc(-c3ccc(O)cc3O)cs2)nc1`, the concentration for a half-maximal effect (EC50) was 1890 nM.

Consider `Cc1ccc2nc(-c3ccc(NS(=O)(=O)c4ccc(F)c(F)c4)cc3)sc2c1`, for which the concentration giving a half-maximal response (EC50) was 3620 nM.

Turning to `Cc1ccc(-n2nnc(-c3cccnc3Cl)n2)cc1`, the 50% effective concentration (EC50) was 4750 nM.

With `Cc1cc(O)ccc1Nc1nc(-c2cccs2)cs1`, the half-maximal effective concentration (EC50) is 1510 nM.

As for `Cc1ccsc1/C=N/Nc1nc2ccccc2[nH]1`, the half-maximal effective concentration (EC50) was 8260 nM.

Regarding `CCOC(=O)c1cnc2c(-c3ccccc3)cnn2c1N`, the half-maximal effective concentration (EC50) is 5180 nM.

For the compound `c1ccc(-c2ncc(-c3ccn[nH]3)s2)cc1`, the EC50 is 2320 nM.

As to `O=C(Nc1ccc2c(c1)CCC2)c1ccc(Br)s1`, the EC50 is 772 nM.

On to `COc1ccc(/C=C/c2nc3ccccc3n2Cc2ccccc2OC)cc1`, for which the concentration for a half-maximal effect (EC50) was 4980 nM.

Consider `C/C(=N\NC(=O)c1ccc(Br)cc1)c1ccccc1`, for which the concentration giving a half-maximal response (EC50) is 23400 nM.

As for `Cc1nn(C)cc1/C=C/C(=O)c1ccccc1`, the EC50 was 2750 nM.

In the case of `C=CCSc1nnc(-c2ccc(Cl)cc2Cl)o1`, the EC50 was 4370 nM.

On to `O=C(Nc1ccc2sccc2c1)c1ccc(Cl)s1`, for which the EC50 is 511 nM.

With `COCCNc1nc(-c2cc3ccccc3o2)cs1`, the EC50 was 1400 nM.

Take `COc1ccccc1Nc1nc(-c2cccs2)cs1`: the EC50 is 3680 nM.

On to `Oc1cccc(-c2nc3ccccc3s2)c1`, for which the half-maximal effective concentration (EC50) is 4100 nM.

As to `O=C(C=C1SCCS1)/C=C/c1ccco1`, the EC50 was 781 nM.

For the compound `COc1ccccc1N1CCN(c2ccc(-c3ccccc3)nn2)CC1`, the EC50 was 718 nM.

For the compound `CCN(CC)c1ccc(N=Nc2nn(C)c(C)c2[N+](=O)[O-])cc1`, the concentration for a half-maximal effect (EC50) was 8190 nM.

In the case of `Cc1ccsc1C(=O)N/N=C/c1ccc2c(c1)OCO2`, the EC50 was 1140 nM.

With `O=C1C=C(Nc2ccccc2)C(=O)c2ccccc21`, the 50% effective concentration (EC50) is 1350 nM.

`Cc1ccc(Nc2nc(C3CC3)cs2)cc1`: the EC50 was 1820 nM.

As for `CC(C)c1ccc(/C=C/C(=O)Nc2nncs2)cc1`, the 50% effective concentration (EC50) is 4500 nM.

On to `CN(c1ccc(O)cc1)c1nc(-c2ccccc2)cs1`, for which the half-maximal effective concentration (EC50) was 1020 nM.

Turning to `CCOC(=O)N/C(N)=N/c1nc2ccccc2s1`, the EC50 was 9450 nM.

Take `Cc1ccnc(NC(=O)CCCOc2cc(=O)n(C)c3ccccc23)c1`: the EC50 is 10500 nM.

Take `Cc1cc(N/C=C/C(=O)c2cccs2)ccc1F`: the EC50 is 2220 nM.

The term EC50 denotes the concentration needed to bring the measured effect to its halfway point.
